Values joined by “and” are separate entries in the source; they are usually repeats but may differ in a detail not shown here. Equal values may be shown once.
tested on: ischemia and reperfusion of the heart; assay: not given; settings: rabbit; single injection 1 mg/kg; cited from earlier work

| Molecule | reduction in infarct size |
| --- | --- |
| Oc1cccc2c(O)nccc12 [1,5-dihydroxyisoquinoline] | 38-48% |

same assay, conditions: rabbit; single injection 10 mg/kg, one minute before occlusion or before reperfusion; cited from earlier work

| Molecule | reduction in infarct size in the heart |
| --- | --- |
| NC(=O)c1cccc(N)c1 [3-amino-benzamide] | 32-42% |

tested on: MSU crystal-induced neutrophil recruitment; assay: Gout model: MSU crystal-induced neutrophil recruitment (peritonitis); format: in vivo, mouse; settings: 45 mg/kg i.p. 1 h prior to 3 mg MSU crystals; 6 h; group C, n=8; vehicle group B 6.30 ± 0.33
Method: Male outbread Swiss albino mice (20-22 g body weight) were purchased from Banton and Kingsman (T.O. strain; Hull, Humberside) and maintained on a standard chow pellet diet with tap water ad libitum and a 12:00 h light/dark cycle. All animals were housed for 1 week prior to experimentation to allow body weight to reach 28-30 g.
1,11b-dihydrobenzopyrano[4,3,2-de ]isoquinolin-1-one was dissolved in 100% DMSO at room temperature at a concentration of 45 mg in 2 ml. The compound was then injected into the peritoneal cavity, so as each mouse received a single dose corresponding to 45 mg/2 ml/kg (e.g. 60 μl for a mouse of 30 g). Control mice received DMSO at 2 ml/kg i.p. A third group of mice which were left untreated were added to control for potential effects of the vehicle. The study involved therefore, the following three groups: group A, untreated mice, n=6, group B, DMSO-treated mice, n=8, and group C, mice treated with 1,11b-dihydrobenzopyrano[4,3,2-de ]isoquinolin-1-one, n=8.
MSU crystal-induced neutrophil recruitment was tested as follows. In all cases, mice were treated 1 h after the treatment noted above, with MSU crystals. A homogenous suspension of MSU crystals was obtained by a 30 min rotation. Peritonitis was induced by injection of 3 mg MSU crystals in 0.5 ml PBS (0.1 M, pH 7.4), and the recruitment of neutrophils into the cavity evaluated at the 6 h time point (Getting, et al., 1997, J. Pharmacol. Exp. Ther. 283: 123-130). Animals were then euthanised by CO2 exposure and the peritoneal cavity washed with 3 ml of PBS supplemented with 3 mM EDTA and 25 U/ml heparin.
An aliquot (100 μl) of the lavage fluid was then diluted 1:10 in Turk's solution (0.01% crystal violet in 3% acetic acid). The samples were then vortexed and 10 μl of the stained cell solution were placed in a Neubauer haematocymometer and neutrophils numbers counted using a light microscope (Olympus B061). […]
Data are shown for single mice, and also shown as mean±S.E. of (n) mice per group. Statistical differences were determined by ANOVA, plus Bonferroni test. […]

| Molecule | Neutrophils (mean ± S.E.) |
| --- | --- |
| O=C1N=Cc2cccc3c2C1c1ccccc1O3 (centres unmarked) [1,11b-dihydrobenzopyrano[4,3,2-de]isoquinolin-1-one] | 2.85 ± 0.34 (8)* 10^6 per mouse |

same assay, conditions: 45 mg/kg i.p. 1 h prior to 3 mg MSU crystals; peritoneal lavage at 6 h; group C, one value per mouse

| Molecule | Neutrophil Numbers (single mice) |
| --- | --- |
| O=C1N=Cc2cccc3c2C1c1ccccc1O3 (centres unmarked) [1,11b-dihydrobenzopyrano[4,3,2-de]isoquinolin-1-one] | 2.4 10^6 per mouse (2×) and 3.0 10^6 per mouse (2×) and 2.7 10^6 per mouse and 2.1 10^6 per mouse (2×) and 5.1 10^6 per mouse |

same assay, conditions: 45 mg/kg i.p.; 6 h after MSU crystals

| Molecule | inhibition of cell influx vs. the vehicle group [%] |
| --- | --- |
| O=C1N=Cc2cccc3c2C1c1ccccc1O3 (centres unmarked) [1,11b-dihydrobenzopyrano[4,3,2-de]isoquinolin-1-one] | 55 |

tested on: PARP; assay: not given; settings: read-out: IC50 for inhibiting PARP; reported by Suto et al.; cited from earlier work

| Molecule | IC50 [nM] |
| --- | --- |
| O=C1NCCc2c(OCCCCN3CCCCC3)cccc21 [DPQ, 3,4-dihydro-5-[4-(1-piperidinyl)-butoxy]-1(2H)-isoquinolinone] | 40 |

molecular target: T1, purified recombinant human PARP (Homo sapiens, UniProt P09874); assay: PARP enzyme assay (IC50), [3H]NAD incorporation; format: biochemical; settings: approximate values, read-out: Inhibition IC50
T1 construct: purchased Trevigan (Gaithersburg, Md.)
T1 sequence (P09874 whole entry): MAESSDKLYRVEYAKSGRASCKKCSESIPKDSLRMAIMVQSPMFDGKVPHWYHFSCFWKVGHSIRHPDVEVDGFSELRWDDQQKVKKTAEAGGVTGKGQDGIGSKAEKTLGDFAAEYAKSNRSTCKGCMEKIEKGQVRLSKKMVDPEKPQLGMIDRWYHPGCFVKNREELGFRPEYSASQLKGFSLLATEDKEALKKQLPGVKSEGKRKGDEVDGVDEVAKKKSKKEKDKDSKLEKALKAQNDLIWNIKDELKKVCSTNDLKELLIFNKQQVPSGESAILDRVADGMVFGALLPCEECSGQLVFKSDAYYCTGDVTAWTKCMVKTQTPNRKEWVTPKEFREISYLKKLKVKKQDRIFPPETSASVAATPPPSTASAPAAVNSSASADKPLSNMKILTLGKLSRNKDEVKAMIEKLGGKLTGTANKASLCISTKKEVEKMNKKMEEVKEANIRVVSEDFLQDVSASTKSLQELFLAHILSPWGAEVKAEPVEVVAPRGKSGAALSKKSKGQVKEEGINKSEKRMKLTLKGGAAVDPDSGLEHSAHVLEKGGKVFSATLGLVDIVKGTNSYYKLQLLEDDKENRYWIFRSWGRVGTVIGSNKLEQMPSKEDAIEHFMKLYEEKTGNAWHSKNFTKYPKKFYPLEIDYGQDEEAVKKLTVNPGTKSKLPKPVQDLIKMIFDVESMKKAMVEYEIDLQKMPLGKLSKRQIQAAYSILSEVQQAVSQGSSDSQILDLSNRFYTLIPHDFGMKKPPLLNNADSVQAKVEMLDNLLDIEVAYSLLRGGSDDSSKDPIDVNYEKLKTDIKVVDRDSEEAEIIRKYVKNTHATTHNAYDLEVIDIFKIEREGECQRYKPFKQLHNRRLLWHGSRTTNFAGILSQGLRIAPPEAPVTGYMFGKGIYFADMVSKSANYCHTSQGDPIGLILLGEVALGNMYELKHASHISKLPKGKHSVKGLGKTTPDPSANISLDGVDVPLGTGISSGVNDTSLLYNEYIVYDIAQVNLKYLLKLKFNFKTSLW
Method: The reaction is initiated by incubating the mixture at 25° C. After 15 minutes of incubation, the reaction is terminated by adding 500 microliters of ice cold 20% (w/v) trichloroacetic acid. The precipitate formed is transferred onto a glass fiber filter (Packard Unifilter-GF/B) and washed three times with ethanol. After the filter is dried, the radioactivity is determined by scintillation counting.
Using the PARP assay described above, approximate IC50 (μM) values were obtained as shown in the following Table III, which also include specific embodiments of the compounds of the present invention: […]

| Molecule | IC50 [nM] |
| --- | --- |
| O=c1[nH]c2cccc3c2c2c(cccc12)C3 [Compound 1, 5,9-dihydro-4[H]cyclopenta[lmn]phenathridin-5-one] | 100 |
| O=c1[nH]c2ccc(S(=O)(=O)N3CCN(c4ccccn4)CC3)c3c2c2c(cccc12)C3 [Compound 6] | 380 |
| CN1CCN(S(=O)(=O)c2ccc3[nH]c(=O)c4cccc5c4c3c2C5)CC1 [Compound 9, 5,9-Dihydro-1-[(4-methyl-1-piperazinyl)sulfonyl]-4[H]cyclopenta[lmn]phenathridin-5-one] | 130 |
| O=C(Nc1ccc2[nH]c(=O)c3cccc4c3c2c1C4)c1cccc(F)c1 [Compound 14, N-(5,9-Dihydro-5-oxo-4[H]cyclopenta[lmn]phenathridin-1-yl)-3-fluorbenzamide] | 80 |
| O=c1[nH]c2cccc3c(=O)c4cccc1c4c23 [Compound 16, 9-oxo-5,9-dihydro-4[H]cyclopenta[lmn]phenathridin-5-one] | 70 |
| O=c1[nH]c2cc(F)cc3c(=O)c4cc(F)cc1c4c23 [Compound 17] | 30 |
| O=c1[nH]c2cc(F)cc3c2c2c(cc(F)cc12)C3O (centres unmarked) [Compound 19] | 100 |
| CC(=O)OC1c2cc(F)cc3[nH]c(=O)c4cc(F)cc1c4c23 (centres unmarked) [Compound 21, 5,9-Dihydro-2,7-difluoro-5-oxo-4[H]cyclopenta[lmn]phenathridin-9-yl acetate] | 360 |
| N-(5,9-Dihydro-5-oxo-4[H]cyclopenta[lmn]phenathridin-1-yl)-4-fluorbenzamide [Compound 15] | 70 |

The remaining lines, values ahead:

| IC50 [nM] | Molecule |
| --- | --- |
| 810 | CC(=O)OC1c2cccc3[nH]c(=O)c4cccc1c4c23 (centres unmarked) [Compound 20] |
| 120 | O=c1[nH]c2cccc3c2c2c(cccc12)C3O (centres unmarked) [Compound 18] |
| 111 | O=c1[nH]c2ccc([N+](=O)[O-])c3c2c2c(cccc12)C3 [Compound 4, 5,9-dihydro-1-nitro-4[H]cyclopenta[lmn]phenathridin-5-one] |
| 110 | O=c1[nH]c2ccc(S(=O)(=O)O)c3c2c2c(cccc12)C3 [Compound 2, 5,9-Dihydro-5-oxo-4[H]cyclopenta[lmn]phenathridine-1-sulfonic acid] |
| 70 | O=c1[nH]c2ccc(S(=O)(=O)NCCN3CCOCC3)c3c2c2c(cccc12)C3 [Compound 8, 5,9-Dihydro-N-[2-(4-morpholinyl)ethyl]-1-oxo-[H]cyclopenta[lmn]phenathridine-1-sulfonamide] |
| 70 | O=c1[nH]c2ccc(S(=O)(=O)NCCc3ccncc3)c3c2c2c(cccc12)C3 [Compound 10] |
| 60 | Nc1ccc2[nH]c(=O)c3cccc4c3c2c1C4 [Compound 5, 5,9-dihydro-1-amino-4[H]cyclopenta[lmn]phenathridin-5-one] |
| 50 | O=c1[nH]c2ccc(S(=O)(=O)NCCN3CCCCC3)c3c2c2c(cccc12)C3 [Compound 11, 5,9-Dihydro-5-oxo-N-[2-(1-piperidinyl)ethyl]-4[H]cyclopenta[lmn]phenathridine-1-sulfonamide] |
| 50 | CC(=O)Nc1ccc2[nH]c(=O)c3cccc4c3c2c1C4 [Compound 13, 5,9-Dihydro-5-oxo-4[H]cyclopenta[mn]phenathridin-1-yl acetamide] |
| 40 | O=c1[nH]c2ccc(S(=O)(=O)N3CCOCC3)c3c2c2c(cccc12)C3 [Compound 12, 5,9-Dihydro-1-(4-morpholinylsulfonyl)-4[H]cyclopenta[lmn]phenathridin-5-one] |
| 20 | O=c1[nH]c2cc(Cl)cc3[nH]c4cc(Cl)cc1c4c23 [Compound 22, 2,7,-Dichloro-5,9-dihydro-4[H]pyrrol[2,3,4,5-lmn]phenathridin-5-one] |

Source: patent US6545011B2, “Substituted 4,9-dihydrocyclopenta[imn]phenanthridine-5-ones, derivatives thereof and their uses” (Guilford Pharmaceuticals Inc., priority 2000, dated 2003)
